Laboratory results published in patent publication US20130209543A1, “ENHANCED TREATMENT REGIMENS USING MTOR INHIBITORS” (Intellikine LLC, priority 2011, published 2013).

Assay: Phase I clinical trial: safety, related treatment-emergent adverse events, patients n (%)
Assay type: in vivo
[1] = Total QW Dosing, N = 15, listed as Cpd A
[2] = all 3 intermittent dosing regimens, n=35

Method: Safety, maximum tolerated dose (MTD), pharmacokinetics (PK) and preliminary antitumor activity were evaluated.
Pharmacodynamic (PD) endpoints were evaluated in surrogate (peripheral blood cells [PBCs], skin) and tumor tissues for the phosphorylation of TORC1-dependent markers (4EBP1/S6), and TORC2-dependent markers (AKT/PRAS40).

For `CC(C)n1nc(-c2ccc3oc(N)nc3c2)c2c(N)ncnc21` [compound A], the Gastritis (Total QDx3d QW, N = 14) was 0 (0%), the Gravitational oedema (Total QDx3d QW, N = 14) was 0 (0%) and the Hypocalcaemia (Total QDx3d QW, N = 14) was 0 (0%). The Insomnia (Total QDx3d QW, N = 14) was 0 (0%), the Malaise (Total QDx3d QW, N = 14) was 0 (0%) and the Nausea (Total QDx3d QW, N = 14) was 0 (0%). The Oral discomfort (Total QDx3d QW, N = 14) was 0 (0%), the Orthostatic hypotension (Total QDx3d QW, N = 14) was 0 (0%) and the Panniculitis (Total QDx3d QW, N = 14) was 0 (0%). For the same compound, the Polyuria (Total QDx3d QW, N = 14) was 0 (0%), the Rash (Total QDx3d QW, N = 14) was 0 (0%) and the Skin discolouration (Total QDx3d QW, N = 14) was 0 (0%). The Skin exfoliation (Total QDx3d QW, N = 14) was 0 (0%), the Urine tract infection (Total QDx3d QW, N = 14) was 0 (0%) and the Vomiting (Total QDx3d QW, N = 14) was 0 (0%). For the same compound, the Weakness (Total QDx3d QW, N = 14) was 0 (0%), the Weight decreased (Total QDx3d QW, N = 14) was 0 (0%) and the Catheter site inflammation (Total QDx5d QW, N = 6) was 0 (0%). For the same compound, the Catheter site pain (Total QDx5d QW, N = 6) was 0 (0%), the Coagulopathy (Total QDx5d QW, N = 6) was 0 (0%) and the Confusional state (Total QDx5d QW, N = 6) was 0 (0%). For the same compound, the Cough (Total QDx5d QW, N = 6) was 0 (0%), the Diarrhea (Total QDx5d QW, N = 6) was 0 (0%) and the Dizziness (Total QDx5d QW, N = 6) was 0 (0%). For the same compound, the Dyspnoea exertional (Total QDx5d QW, N = 6) was 0 (0%), the Eye infection (Total QDx5d QW, N = 6) was 0 (0%) and the Fatigue (Total QDx5d QW, N = 6) was 0 (0%). The Gastritis (Total QDx5d QW, N = 6) was 0 (0%), the Gravitational oedema (Total QDx5d QW, N = 6) was 0 (0%) and the Headache (Total QDx5d QW, N = 6) was 0 (0%). The Hyperbilirubinaemia (Total QDx5d QW, N = 6) was 0 (0%), the Hypertransaminasaemia (Total QDx5d QW, N = 6) was 0 (0%) and the Hypertriglyceridaemia (Total QDx5d QW, N = 6) was 0 (0%). The Hypocalcaemia (Total QDx5d QW, N = 6) was 0 (0%), the Hypomagnesaemia (Total QDx5d QW, N = 6) was 0 (0%) and the Hypotension (Total QDx5d QW, N = 6) was 0 (0%). For the same compound, the Insomnia (Total QDx5d QW, N = 6) was 0 (0%), the Low fever (Total QDx5d QW, N = 6) was 0 (0%) and the Malaise (Total QDx5d QW, N = 6) was 0 (0%). The “Nausea (second line)” value (Total QDx5d QW, N = 6) was 1 (17%), the Oral discomfort (Total QDx5d QW, N = 6) was 0 (0%) and the Orthostatic hypotension (Total QDx5d QW, N = 6) was 0 (0%). The Palmar-plantar erythrodysaesthesia syndrome (Total QDx5d QW, N = 6) was 0 (0%), the Panniculitis (Total QDx5d QW, N = 6) was 0 (0%) and the Platelet count decreased (Total QDx5d QW, N = 6) was 0 (0%). The Polyuria (Total QDx5d QW, N = 6) was 0 (0%), the Pyrexia (Total QDx5d QW, N = 6) was 0 (0%) and the Rash (Total QDx5d QW, N = 6) was 0 (0%). For the same compound, the Rash macular (Total QDx5d QW, N = 6) was 0 (0%), the Skin discolouration (Total QDx5d QW, N = 6) was 0 (0%) and the Skin exfoliation (Total QDx5d QW, N = 6) was 0 (0%). For the same compound, the Urinary tract infection (Total QDx5d QW, N = 6) was 0 (0%), the Weakness (Total QDx5d QW, N = 6) was 0 (0%) and the Weight decreased (Total QDx5d QW, N = 6) was 0 (0%). For the same compound, the Aspartate aminotransferase increased (Total QW Dosing, N = 15) was 2 (13%), the Asthenia (Total QW Dosing, N = 15) was 2 (13%) and the Catheter site inflammation (Total QW Dosing, N = 15) was 0 (0%). The Catheter site pain (Total QW Dosing, N = 15) was 0 (0%), the Coagulopathy (Total QW Dosing, N = 15) was 0 (0%) and the Confusional state (Total QW Dosing, N = 15) was 0 (0%). For the same compound, the Cough (Total QW Dosing, N = 15) was 0 (0%), the Diarrhoea (Total QW Dosing, N = 15) was 3 (20%) and the Dizziness (Total QW Dosing, N = 15) was 0 (0%). For the same compound, the Dyspnoea exertional (Total QW Dosing, N = 15) was 0 (0%), the Eye infection (Total QW Dosing, N = 15) was 0 (0%) and the Fatigue (Total QW Dosing, N = 15) was 0 (0%). For the same compound, the Gastritis (Total QW Dosing, N = 15) was 0 (0%), the Gravitational oedema (Total QW Dosing, N = 15) was 0 (0%) and the HYPERGLYCEMIA (Total QW Dosing, N = 15) was 2 (13%). The Headache (Total QW Dosing, N = 15) was 0 (0%), the Hyperbilirubinaemia (Total QW Dosing, N = 15) was 0 (0%) and the Hyperglycaemia (Total QW Dosing, N = 15) was 5 (33%). For the same compound, the Hypertransaminasaemia (Total QW Dosing, N = 15) was 0 (0%), the Hypertriglyceridaemia (Total QW Dosing, N = 15) was 0 (0%) and the Hypocalcaemia (Total QW Dosing, N = 15) was 0 (0%). For the same compound, the Hypomagnesaemia (Total QW Dosing, N = 15) was 0 (0%), the Hypotension (Total QW Dosing, N = 15) was 0 (0%) and the Insomnia (Total QW Dosing, N = 15) was 0 (0%). For the same compound, the Low fever (Total QW Dosing, N = 15) was 0 (0%), the Mucosal inflammation (Total QW Dosing, N = 15) was 3 (20%) and the Nausea (Total QW Dosing, N = 15) was 0 (0%). For the same compound, the Orthostatic hypotension (Total QW Dosing, N = 15) was 0 (0%), the Palmar-plantar erythrodysaesthesia syndrome (Total QW Dosing, N = 15) was 0 (0%) and the Panniculitis (Total QW Dosing, N = 15) was 0 (0%). The “Patients Reporting at Least One Related TEAE” value (Total QW Dosing, N = 15) was 13 (87%), the Platelet count decreased (Total QW Dosing, N = 15) was 0 (0%) and the Polyuria (Total QW Dosing, N = 15) was 0 (0%). For the same compound, the Pyrexia (Total QW Dosing, N = 15) was 0 (0%), the Rash macular (Total QW Dosing, N = 15) was 0 (0%) and the Skin discolouration (Total QW Dosing, N = 15) was 0 (0%). For the same compound, the Skin exfoliation (Total QW Dosing, N = 15) was 0 (0%), the Urinary tract infection (Total QW Dosing, N = 15) was 0 (0%) and the Urine tract infection (Total QW Dosing, N = 15) was 0 (0%). The Vomiting (Total QW Dosing, N = 15) was 0 (0%), the Weight decreased (Total QW Dosing, N = 15) was 0 (0%) and the Nausea [1] was 10 (67%). The Vomiting [1] was 5 (33%), the Catheter site inflammation (Total, N = 60) was 1 (2%) and the Catheter site pain (Total, N = 60) was 1 (2%). The Coagulopathy (Total, N = 60) was 1 (2%), the Confusional state (Total, N = 60) was 1 (2%) and the Cough (Total, N = 60) was 1 (2%). For the same compound, the Diarrhea (Total, N = 60) was 1 (2%), the Dizziness (Total, N = 60) was 1 (2%) and the Dyspnoea exertional (Total, N = 60) was 1 (2%). For the same compound, the Eye infection (Total, N = 60) was 1 (2%), the Fatigue (Total, N = 60) was 1 (2%) and the Gastritis (Total, N = 60) was 1 (2%). The Gravitational oedema (Total, N = 60) was 1 (2%), the Headache (Total, N = 60) was 1 (2%) and the Hyperbilirubinaemia (Total, N = 60) was 1 (2%). The Hypertransaminasaemia (Total, N = 60) was 1 (2%), the Hypertriglyceridaemia (Total, N = 60) was 1 (2%) and the Hypocalcaemia (Total, N = 60) was 1 (2%). For the same compound, the Hypomagnesaemia (Total, N = 60) was 1 (2%), the Hypotension (Total, N = 60) was 1 (2%) and the Insomnia (Total, N = 60) was 1 (2%). The Low fever (Total, N = 60) was 1 (2%), the Malaise (Total, N = 60) was 1 (2%) and the Nausea (Total, N = 60) was 1 (2%). For the same compound, the Oral discomfort (Total, N = 60) was 1 (2%), the Orthostatic hypotension (Total, N = 60) was 1 (2%) and the Palmar-plantar erythrodysaesthesia syndrome (Total, N = 60) was 1 (2%). The Panniculitis (Total, N = 60) was 1 (2%), the Platelet count decreased (Total, N = 60) was 1 (2%) and the Polyuria (Total, N = 60) was 1 (2%). For the same compound, the Pyrexia (Total, N = 60) was 1 (2%), the Rash (Total, N = 60) was 1 (2%) and the Rash macular (Total, N = 60) was 1 (2%). The Skin discolouration (Total, N = 60) was 1 (2%), the Skin exfoliation (Total, N = 60) was 1 (2%) and the Urinary tract infection (Total, N = 60) was 1 (2%). The Urine tract infection (Total, N = 60) was 1 (2%), the Vomiting (Total, N = 60) was 1 (2%) and the Weakness (Total, N = 60) was 1 (2%). The Weight decreased (Total, N = 60) was 1 (2%), the “AE possibly related: asthenia” value [2] was 23% and the “AE possibly related: diarrhea” value [2] was 20%. The “AE possibly related: hyperglycemia” value [2] was 37%, the “AE possibly related: mucosal inflammation” value [2] was 29% and the “AE possibly related: nausea” value [2] was 51%. The “AE possibly related: rash” value [2] was 23%, the “AE possibly related: vomiting” value [2] was 26% and the “reversibility of adverse events” value (all AEs reported) was “reversible”. For the same compound, the “grade of the majority of AEs possibly related” value (any regimen) was “Grade 1 or 2”.
